According to ChEMBL document CHEMBL5608184, “Discovery and mechanistic insights into thieno[3,2-d]pyrimidine and heterocyclic fused pyrimidines inhibitors targeting tubulin for cancer therapy” (Eur J Med Chem, 2024):
Active and inactive are the calls of the source. No cut-off for these calls is given here.

Tests used:
SK-OV-3 [1] = assay: Inhibition of cell migration in human SK-OV-3 cells assessed as migration rate at 2.5 nM incubated for 24 hrs by wound healing assay relative to control; type: functional; set-up: scale not given: the % may be the effect or the level left
Tubulin (Homo sapiens) [2] = target: T1, Tubulin (Homo sapiens) (UniProt P68371+Q9H4B7+P0DPH7+P68366+Q13509+Q71U36+P04350+Q3ZCM7+P07437+P68363+Q9BQE3+Q6PEY2+Q13885+Q9BVA1+Q9BUF5); assay: Inhibition of tubulin polymerization in human SK-OV-3 assessed as decrease in cell viability at 2 nM incubated for 24 hrs by immunofluorescence based analysis
SK-OV-3 [3] = assay: Induction of cell cycle arrest at G2/M phase in human SK-OV-3 cells at 0.625 nM incubated for 24 hrs by PI staining based flow cytometry (reference value: 30.13 %); type: functional
Tubulin (Homo sapiens) [4] = target: T1, Tubulin (Homo sapiens); assay: Inhibition of tubulin polymerization in human SK-OV-3 assessed as disruption of microtubule cytoskeleton at 2 nM incubated for 24 hrs by immunofluorescence based analysis; type: cell-based
A2780 = assay: Antiproliferative activity against human A2780 cells incubated for 48 hrs by CCK8 assay; type: functional, cell-based; conditions: A2780, 48 h
SK-OV-3 [5] = assay: Induction of apoptosis in human SK-OV-3 cells assessed as late apoptotic cells at 1.25 nM incubated for 48 hrs by Annexin V-APC-A/7-AAD-A staining based flow cytometry (reference value: 1.20 %); type: functional
A549 = assay: cells; conditions: Homo sapiens, A549, 48 h
Description: Antiproliferative activity against human A549 cells incubated for 48 hrs by CCK8 assay

HCC827 = assay: Antiproliferative activity against human HCC827 cells incubated for 48 hrs by CCK8 assay; type: functional, cell-based; conditions: HCC827, 48 h
SK-OV-3 [6] = assay: Induction of apoptosis in human SK-OV-3 cells assessed as necrotic cells at 2.5 nM incubated for 48 hrs by Annexin V-APC-A/7-AAD-A staining based flow cytometry (reference value: 0.21 %); type: functional
Tubulin (Homo sapiens) [7] = target: T1, Tubulin (Homo sapiens); assay: Inhibition of tubulin polymerization in human SK-OV-3 assessed as condensation of microtubule at cell periphery at 2 nM incubated for 24 hrs by immunofluorescence based analysis
Sus scrofa = species on record: Sus scrofa; assay: Inhibition of porcine brain tubulin polymerization measured for 60 min by fluorescence based assay; conditions: dose 10.0 µM
SK-OV-3 [8] = assay: Inhibition of cell migration in human SK-OV-3 cells assessed as migration rate at 0.625 nM incubated for 24 hrs by wound healing assay relative to control; type: functional; set-up: scale not given: the % may be the effect or the level left
SK-OV-3 [9] = assay: Induction of cell cycle arrest at G2/M phase in human SK-OV-3 cells at 1.25 nM incubated for 24 hrs by PI staining based flow cytometry (reference value: 30.13 %); type: functional
SK-OV-3 [10] = assay: Inhibition of colony formation in human SK-OV-3 cells incubated for 3 days by crystal violet staining based analysis; type: functional, cell-based; conditions: dose 0.625-5 nM, time 3.0 day
SK-OV-3 [11] = assay: Inhibition of cell migration in human SK-OV-3 cells assessed as migration rate at 1.25 nM incubated for 24 hrs by wound healing assay relative to control; type: functional; set-up: scale not given: the % may be the effect or the level left
SK-OV-3 [12] = assay: Induction of cell cycle arrest at G2/M phase in human SK-OV-3 cells at 2.5 nM incubated for 24 hrs by PI staining based flow cytometry (reference value: 30.13 %); type: functional
SK-OV-3 [13] = assay: Induction of apoptosis in human SK-OV-3 cells assessed as increase in cleaved PARP level incubated for 48 hrs by Western blot analysis; type: functional, cell-based; conditions: dose 0.625-5 nM
SK-OV-3 [14] = assay: Induction of apoptosis in human SK-OV-3 cells assessed as late apoptotic cells at 0.625 nM incubated for 48 hrs by Annexin V-APC-A/7-AAD-A staining based flow cytometry (reference value: 1.20 %); type: functional
SK-OV-3 [15] = assay: Induction of cell cycle arrest at G2/M phase in human SK-OV-3 cells assessed as increase in Cyclin B level incubated for 24 hrs by Western blot analysis; type: functional, cell-based; conditions: dose 0.625-5 nM
SK-OV-3 [16] = assay: Induction of apoptosis in human SK-OV-3 cells assessed as decrease in Bcl-2 level incubated for 48 hrs by Western blot analysis; type: functional, cell-based; conditions: dose 0.625-5 nM
Tubulin (Homo sapiens) [17] = target: T1, Tubulin (Homo sapiens); assay: Inhibition of tubulin polymerization in human SK-OV-3 assessed as severe cell contraction at 2 nM incubated for 24 hrs by immunofluorescence based analysis
SK-OV-3 [18] = assay: Induction of cell cycle arrest at G2/M phase in human SK-OV-3 cells assessed as decrease in Cdc-25c level incubated for 24 hrs by Western blot analysis; type: functional, cell-based; conditions: dose 0.625-5 nM
SK-OV-3 [19] = assay: Inhibition of cell migration in human SK-OV-3 cells assessed as relative wound density at 5 nM incubated for 24 hrs by wound healing assay (reference value: 61.61 %); type: functional; set-up: scale not given: the % may be the effect or the level left
SK-OV-3 [20] = assay: Inhibition of cell migration in human SK-OV-3 cells assessed as migration rate at 5 nM incubated for 24 hrs by wound healing assay relative to control; type: functional; set-up: scale not given: the % may be the effect or the level left
[21] = Antiproliferative activity against Paclitaxel-resistant human A2780 cells incubated for 48 hrs by CCK8 assay; type: functional, cell-based; conditions: Paclitaxel-resistant A2780, 48 h
SK-OV-3 [22] = assay: Induction of apoptosis in human SK-OV-3 cells assessed as necrotic cells at 0.625 nM incubated for 48 hrs by Annexin V-APC-A/7-AAD-A staining based flow cytometry (reference value: 0.21 %); type: functional
SK-OV-3 [23] = assay: Induction of apoptosis in human SK-OV-3 cells assessed as increase in cleaved caspase-9 level incubated for 48 hrs by Western blot analysis; type: functional, cell-based; conditions: dose 0.625-5 nM
SK-OV-3 [24] = assay: Induction of apoptosis in human SK-OV-3 cells assessed as increase in cleaved caspase-3 level incubated for 48 hrs by Western blot analysis; type: functional, cell-based; conditions: dose 0.625-5 nM
SK-OV-3 [25] = assay: Antiproliferative activity against human SK-OV-3 cells incubated for 48 hrs by CCK8 assay; type: functional, cell-based; conditions: SK-OV-3, 48 h
SK-OV-3 [26] = assay: Induction of apoptosis in human SK-OV-3 cells assessed as early apoptotic cells at 5 nM incubated for 48 hrs by Annexin V-APC-A/7-AAD-A staining based flow cytometry (reference value: 1.10 %); type: functional
SK-OV-3 [27] = assay: Induction of apoptosis in human SK-OV-3 cells assessed as early apoptotic cells at 2.5 nM incubated for 48 hrs by Annexin V-APC-A/7-AAD-A staining based flow cytometry (reference value: 1.12 %); type: functional
SK-OV-3 [28] = assay: Induction of apoptosis in human SK-OV-3 cells assessed as late apoptotic cells at 1.25 nM incubated for 48 hrs by Annexin V-APC-A/7-AAD-A staining based flow cytometry (reference value: 1.22 %); type: functional
SK-OV-3 [29] = assay: Induction of apoptosis in human SK-OV-3 cells assessed as early apoptotic cells at 0.625 nM incubated for 48 hrs by Annexin V-APC-A/7-AAD-A staining based flow cytometry (reference value: 1.12 %); type: functional
SK-OV-3 [30] = assay: Induction of apoptosis in human SK-OV-3 cells assessed as viable cells at 2.5 nM incubated for 48 hrs by Annexin V-APC-A/7-AAD-A staining based flow cytometry (reference value: 97.17 %); type: functional; conditions: read-out: Activity
SK-OV-3 [31] = assay: Induction of apoptosis in human SK-OV-3 cells assessed as early apoptotic cells at 1.25 nM incubated for 48 hrs by Annexin V-APC-A/7-AAD-A staining based flow cytometry (reference value: 1.12 %); type: functional
SK-OV-3 [32] = assay: Induction of apoptosis in human SK-OV-3 cells assessed as late apoptotic cells at 2.5 nM incubated for 48 hrs by Annexin V-APC-A/7-AAD-A staining based flow cytometry (reference value: 1.22 %); type: functional

inhibition (Tubulin (Homo sapiens) [4]) | IC50 (A2780) [nM] | IC50 (A549) [nM] | IC50 (HCC827) [nM] | inhibition (Tubulin (Homo sapiens) [7]) | inhibition (Tubulin (Homo sapiens) [17]) | Compound | Activity (SK-OV-3 [1]) [%] | inhibition (Tubulin (Homo sapiens) [2]) | inhibition (Sus scrofa) | Activity (SK-OV-3 [8]) [%] | inhibition (SK-OV-3 [10]) | Activity (SK-OV-3 [11]) [%] | Activity (SK-OV-3 [13]) | Activity (SK-OV-3 [15]) | Activity (SK-OV-3 [16]) | Activity (SK-OV-3 [18]) | Activity (SK-OV-3 [20]) [%] | IC50 [21] [nM] | Activity (SK-OV-3 [23]) | Activity (SK-OV-3 [24]) | other results
Active | 1.56 | 1.76 | 1.74 | Active | Active | COc1ccc(N(C)c2nc(Cl)nc3ccn(C)c23)cc1 | 81.73 | Active | Dose-Dependent Effect | 102.55 | Dose-Dependent Effect | 94.75 | Dose-Dependent Effect | Active | Dose-Dependent Effect | Active | 56.82 | 2.26 | Dose-Dependent Effect | Dose-Dependent Effect | Activity (SK-OV-3 [3]): 32.3%; Activity (SK-OV-3 [5]): 2.48%; Activity (SK-OV-3 [6]): 1.17%; Activity (SK-OV-3 [9]): 34.62%; Activity (SK-OV-3 [12]): 52.19%; Activity (SK-OV-3 [14]): 1.93%; Activity (SK-OV-3 [19]): 12.11%; Activity (SK-OV-3 [22]): 0.33%; IC50 (SK-OV-3 [25]): 1.32 nM; Activity (SK-OV-3 [26]): 39.84%
Active | 0.38 | 0.84 | 0.34 | Active | Active | COc1ccc2c(c1)NC(=O)CN2c1nc(Cl)nc2ccsc12 | 50.2 | Active | Dose-Dependent Effect | 84.28 | Dose-Dependent Effect | 70.73 | Dose-Dependent Effect | Active | Dose-Dependent Effect | Active | 23.64 | 0.75 | Dose-Dependent Effect | Dose-Dependent Effect | Activity (SK-OV-3 [27]): 39.07%; Activity (SK-OV-3 [28]): 4.64%; Activity (SK-OV-3 [29]): 15.61%; viability at 0.0025 µM (SK-OV-3 [30]): 53.9%; IC50 (SK-OV-3 [25]): 0.31 nM; Activity (SK-OV-3 [31]): 38.42%; Activity (SK-OV-3 [32]): 4.71%
